Drawing on ChEMBL document CHEMBL2331181, “Synthesis and in vitro cytotoxic activity evaluation of novel heterocycle bridged carbothioamide type isosteviol derivatives as antitumor agents” (Bioorg Med Chem Lett, 2013), this text covers IC50 for 8 compounds.

The first assay relates to SGC-7901. Briefly: Cytotoxicity against human SGC7901 cells after 48 hrs by MTT assay. It is filed as functional, cell-based. To be noted: SGC-7901, 48 h.
The IC50 is the concentration that gives 50% inhibition. A low value points to greater potency. `CCOC(=O)[C@]1(C)CCC[C@@]2(C)[C@@H]3CC[C@@]4(C)C[C@]3(CC[C@@H]21)c1cn(C(=S)Nc2ccc([N+](=O)[O-])cc2)nc14` came in with a 50% inhibitory concentration (IC50) of 34.2 µM.

With `CCOC(=O)[C@]1(C)CCC[C@@]2(C)[C@@H]3CC[C@@]4(C)C[C@]3(CC[C@@H]21)[C@@H]1CON(C(=S)Nc2ccccc2)[C@@H]14`, half-maximal inhibition (IC50) was put at 27.6 µM.

Turning to `CCOC(=O)[C@]1(C)CCC[C@@]2(C)[C@@H]3CC[C@@]4(C)C[C@]3(CC[C@@H]21)[C@@H]1CON(C(=S)Nc2cccc(Cl)c2)[C@@H]14`, the 50% inhibitory concentration (IC50) was > 50 µM.

For the compound `CCOC(=O)[C@]1(C)CCC[C@@]2(C)[C@@H]3CC[C@@]4(C)C[C@]3(CC[C@@H]21)[C@@H]1CON(C(=S)Nc2ccc(OC)cc2)[C@@H]14`, the IC50 was > 50 µM.

As to `CCOC(=O)[C@]1(C)CCC[C@@]2(C)[C@@H]3CC[C@@]4(C)C[C@]3(CC[C@@H]21)c1cn(C(=S)Nc2cccc(Br)c2)nc14`, it took 19.6 µM to reach half-maximal inhibition (IC50).

Regarding `CCOC(=O)[C@]1(C)CCC[C@@]2(C)[C@@H]3CC[C@@]4(C)C[C@]3(CC[C@@H]21)[C@@H]1CON(C(=S)Nc2cccc(C)c2)[C@@H]14`, the IC50 turned out to be 34.1 µM.

With `CCOC(=O)[C@]1(C)CCC[C@@]2(C)[C@@H]3CC[C@@]4(C)C[C@]3(CC[C@@H]21)[C@@H]1CON(C(=S)Nc2ccccc2[N+](=O)[O-])[C@@H]14`, the half-maximal inhibitory concentration (IC50) is > 50 µM.

In turn, `CCOC(=O)[C@]1(C)CCC[C@@]2(C)[C@@H]3CC[C@@]4(C)C[C@]3(CC[C@@H]21)[C@@H]1CON(C(=S)Nc2cccc(Br)c2)[C@@H]14` yielded an IC50 of 36.4 µM.

The next assay has as its system A549. Nature of the assay: Cytotoxicity against human A549 cells after 48 hrs by MTT assay. It is filed as functional, cell-based. Particulars: A549, 48 h. In general terms: Formazan colour is commonly taken as a measure of viable cells.
In turn, `CCOC(=O)[C@]1(C)CCC[C@@]2(C)[C@@H]3CC[C@@]4(C)C[C@]3(CC[C@@H]21)c1cn(C(=S)Nc2ccc([N+](=O)[O-])cc2)nc14` showed a concentration for half-maximal inhibition (IC50) of 35.3 µM.

As to `CCOC(=O)[C@]1(C)CCC[C@@]2(C)[C@@H]3CC[C@@]4(C)C[C@]3(CC[C@@H]21)[C@@H]1CON(C(=S)Nc2ccccc2)[C@@H]14`, the IC50 was > 50 µM.

`CCOC(=O)[C@]1(C)CCC[C@@]2(C)[C@@H]3CC[C@@]4(C)C[C@]3(CC[C@@H]21)[C@@H]1CON(C(=S)Nc2cccc(Cl)c2)[C@@H]14`: the concentration for half-maximal inhibition (IC50) is > 50 µM.

With `CCOC(=O)[C@]1(C)CCC[C@@]2(C)[C@@H]3CC[C@@]4(C)C[C@]3(CC[C@@H]21)[C@@H]1CON(C(=S)Nc2ccc(OC)cc2)[C@@H]14`, the 50% inhibitory concentration (IC50) was > 50 µM.

Compound `CCOC(=O)[C@]1(C)CCC[C@@]2(C)[C@@H]3CC[C@@]4(C)C[C@]3(CC[C@@H]21)c1cn(C(=S)Nc2cccc(Br)c2)nc14` came in with a concentration for half-maximal inhibition (IC50) of 24.8 µM.

Take `CCOC(=O)[C@]1(C)CCC[C@@]2(C)[C@@H]3CC[C@@]4(C)C[C@]3(CC[C@@H]21)[C@@H]1CON(C(=S)Nc2cccc(C)c2)[C@@H]14`: the IC50 is > 50 µM.

Take `CCOC(=O)[C@]1(C)CCC[C@@]2(C)[C@@H]3CC[C@@]4(C)C[C@]3(CC[C@@H]21)[C@@H]1CON(C(=S)Nc2ccccc2[N+](=O)[O-])[C@@H]14`: the IC50 is > 50 µM.

`CCOC(=O)[C@]1(C)CCC[C@@]2(C)[C@@H]3CC[C@@]4(C)C[C@]3(CC[C@@H]21)[C@@H]1CON(C(=S)Nc2cccc(Br)c2)[C@@H]14`: the IC50 is > 50 µM.

For another assay, the system named is Raji. Nature of the assay: Cytotoxicity against human Raji cells after 48 hrs by MTT assay. Format: functional, cell-based.
Settings: not given
Turning to `CCOC(=O)[C@]1(C)CCC[C@@]2(C)[C@@H]3CC[C@@]4(C)C[C@]3(CC[C@@H]21)c1cn(C(=S)Nc2ccc([N+](=O)[O-])cc2)nc14`, the IC50 amounted to 17.9 µM.

`CCOC(=O)[C@]1(C)CCC[C@@]2(C)[C@@H]3CC[C@@]4(C)C[C@]3(CC[C@@H]21)[C@@H]1CON(C(=S)Nc2ccccc2)[C@@H]14` had a 50% inhibitory concentration (IC50) of 32.5 µM.

Regarding `CCOC(=O)[C@]1(C)CCC[C@@]2(C)[C@@H]3CC[C@@]4(C)C[C@]3(CC[C@@H]21)[C@@H]1CON(C(=S)Nc2cccc(Cl)c2)[C@@H]14`, the IC50 is > 50 µM.

In turn, `CCOC(=O)[C@]1(C)CCC[C@@]2(C)[C@@H]3CC[C@@]4(C)C[C@]3(CC[C@@H]21)[C@@H]1CON(C(=S)Nc2ccc(OC)cc2)[C@@H]14` registered an IC50 of 37.4 µM.

Compound `CCOC(=O)[C@]1(C)CCC[C@@]2(C)[C@@H]3CC[C@@]4(C)C[C@]3(CC[C@@H]21)c1cn(C(=S)Nc2cccc(Br)c2)nc14` registered an IC50 of 15.8 µM.

In the case of `CCOC(=O)[C@]1(C)CCC[C@@]2(C)[C@@H]3CC[C@@]4(C)C[C@]3(CC[C@@H]21)[C@@H]1CON(C(=S)Nc2cccc(C)c2)[C@@H]14`, the half-inhibitory concentration (IC50) was determined as 43.2 µM.

In turn, `CCOC(=O)[C@]1(C)CCC[C@@]2(C)[C@@H]3CC[C@@]4(C)C[C@]3(CC[C@@H]21)[C@@H]1CON(C(=S)Nc2ccccc2[N+](=O)[O-])[C@@H]14` came in with an IC50 of 35.4 µM.

With `CCOC(=O)[C@]1(C)CCC[C@@]2(C)[C@@H]3CC[C@@]4(C)C[C@]3(CC[C@@H]21)[C@@H]1CON(C(=S)Nc2cccc(Br)c2)[C@@H]14`, the IC50 is > 50 µM.

The subject of another assay is HeLa. Nature of the assay: Cytotoxicity against human HeLa cells after 48 hrs by MTT assay. Format: functional, cell-based.
Settings: not given
On to `CCOC(=O)[C@]1(C)CCC[C@@]2(C)[C@@H]3CC[C@@]4(C)C[C@]3(CC[C@@H]21)c1cn(C(=S)Nc2ccc([N+](=O)[O-])cc2)nc14`, for which inhibition was half-maximal at 36.2 µM (IC50).

With `CCOC(=O)[C@]1(C)CCC[C@@]2(C)[C@@H]3CC[C@@]4(C)C[C@]3(CC[C@@H]21)[C@@H]1CON(C(=S)Nc2ccccc2)[C@@H]14`, the IC50 is > 50 µM.

With `CCOC(=O)[C@]1(C)CCC[C@@]2(C)[C@@H]3CC[C@@]4(C)C[C@]3(CC[C@@H]21)[C@@H]1CON(C(=S)Nc2cccc(Cl)c2)[C@@H]14`, the IC50 was > 50 µM.

Take `CCOC(=O)[C@]1(C)CCC[C@@]2(C)[C@@H]3CC[C@@]4(C)C[C@]3(CC[C@@H]21)[C@@H]1CON(C(=S)Nc2ccc(OC)cc2)[C@@H]14`: the IC50 is > 50 µM.

For the compound `CCOC(=O)[C@]1(C)CCC[C@@]2(C)[C@@H]3CC[C@@]4(C)C[C@]3(CC[C@@H]21)c1cn(C(=S)Nc2cccc(Br)c2)nc14`, the IC50 was > 50 µM.

Take `CCOC(=O)[C@]1(C)CCC[C@@]2(C)[C@@H]3CC[C@@]4(C)C[C@]3(CC[C@@H]21)[C@@H]1CON(C(=S)Nc2cccc(C)c2)[C@@H]14`: the IC50 is > 50 µM.

With `CCOC(=O)[C@]1(C)CCC[C@@]2(C)[C@@H]3CC[C@@]4(C)C[C@]3(CC[C@@H]21)[C@@H]1CON(C(=S)Nc2ccccc2[N+](=O)[O-])[C@@H]14`, the IC50 is > 50 µM.

Turning to `CCOC(=O)[C@]1(C)CCC[C@@]2(C)[C@@H]3CC[C@@]4(C)C[C@]3(CC[C@@H]21)[C@@H]1CON(C(=S)Nc2cccc(Br)c2)[C@@H]14`, the IC50 was > 50 µM.
